Measurements: patent US11970490B2, “Stable heavy isotopes in amide functional groups and uses thereof” (RISEN (SUZHOU) PHARMA TECH CO., LTD., priority 2020, dated 2024)

Legend:
[1] = James, A. et al., 2015; cited from earlier work
[2] = Pharmacokinetic studies in Sprague Dawley (SD) rats, oral gavage, plasma; type: in vivo; details: for AUC(0-t) / AUC(0-inf) / Cmax / Tmax / Vd/F: Sprague-Dawley, rat; for AUC(0-t) / AUC(0-inf) / Cmax / Tmax / Vd/F / plasma concentration at 24-h timepoint / CLz/F: oral gavage; for AUC(0-t) / AUC(0-inf) / Cmax / Tmax / Vd/F / CLz/F: plasma; for Vd/F: read-out: Vz/F; for plasma concentration at 24-h timepoint: 0.322 mg/kg
Procedure: (a) SD rats, six in a group (n=6), were grouped randomly. Compound 1 (Alpelisib-^18O1) and Alpelisib were mixed and adjusted to 1:1 molar ratio in dosing solution (1.25 mg/mL); and the dosing solution was administered to the animals, via oral gavage, at a dose level of 2.5 mg/kg. Blood samples were collected at pre-set time points following drug administration, at 0.167, 0.5, 1, 2, 3, 4, 6, 8, and 24 hours (h). The blood samples were converted to plasma samples using standard techniques, and the latter samples were analyzed to determine the concentrations of Compound 1 and Alpelisib. In FIG. 1a, lines labelled with -o- and -Δ-represent the plasma concentrations of Alpelisib-^18O1 and Alpelisib, respectively, following oral administration of the same molar dose of Alpelisib-^18O1 and Alpelisib to the animals.
(b) Similarly, Compound 1 (Alpelisib-^18O1) and Alpelisib were administered to the animals (SD rats, n=4), via oral gavage, at a low dose (dose level of 0.322 mg/kg). Blood samples were collected at pre-set time points following drug administration, at 0.167, 0.5, 1, 2, 4, 6, 8, 10 and 24 hours (h). The blood samples were converted to plasma samples using standard techniques, and the latter samples were analyzed to determine the concentrations of Compound 1 and Alpelisib. […] In FIG. 1b, solid line and dashed line represent the plasma concentrations of Alpelisib-^18O1 and Alpelisib, respectively.

[3] = Pharmacokinetic studies in ICR mice, oral gavage, plasma; type: in vivo; details: 2.5 mg/kg; for AUC(0-inf) / AUC(0-t) / Cmax / Tmax / Vd/F: mouse; for AUC(0-inf) / AUC(0-t) / Cmax / Tmax / Vd/F / CLz/F: oral gavage, 1:1 molar mix, plasma; for Vd/F: read-out: Vz/F
Procedure: ICR mice, 48, in 6 groups (n=8), were grouped randomly. Compound 1 (Alpelisib-^18O1) and Alpelisib were mixed and adjusted to 1:1 molar ratio in dosing solution (1.25 mg/mL); and the dosing solution was administered to the animals, via oral gavage, at a dose level of 2.5 mg/kg. Blood samples were collected (a group of 8 animals for each time point) at time points, after dosing, at 0.5, 1, 2, 4, 8, and 12 h. The blood samples were converted to plasma samples using standard techniques, and the latter samples were analyzed to determine the concentrations of Compound 1 and Alpelisib. In FIG. 2, lines labelled with -o- and -Δ-represent the plasma concentrations of Alpelisib-^18O1 and Alpelisib, respectively, following oral administration of the same dose of Alpelisib-^18O1 and Alpelisib to the animals.

[4] = Pharmacokinetic studies in beagle dogs, single oral dose, co-administered; type: in vivo; details: for Cmax / Tmax / half-life / AUC(0-t) / Vd/F: both sexes, dog, plasma; for Cmax / Tmax / half-life / AUC(0-t) / Vd/F / CLz/F: single oral dose 2.5 mg/kg each; for Cmax / Tmax / half-life / Vd/F / CLz/F: co-administered; for AUC(0-t): co-administered (total 5 mg/kg); for Vd/F: read-out: Vz/F
Procedure: Male and female beagle dogs (n=4; 2 males and 2 females) were used in the study. A single oral dose of Alpelisib (2.5 mg/kg) and Compound 1 (^18O1-Alpelisib) (2.5 mg/kg) were co-administered (at a total dose of 5 mg/kg) in DMSO and 0.5% carboxymethyl cellulose sodium (CMC-Na) aqueous solution (5:95, v/v). Blood samples were collected for analysis of Alpelisib and ^18O1-Alpelisib at 0.25, 0.5, 1, 1.5, 2, 3, 4, 6, 8, 10, 12 and 24 h. In FIG. 4, lines labelled with -o- and -Δ- represent the plasma concentrations of Alpelisib-^18O1 and Alpelisib, respectively, following oral administration of the same dose of Alpelisib-^18O1 and Alpelisib to the animals.

[5] = M4 and M4-18O1 production in monkey liver S9; type: in vitro ADME; details: monkey liver S9, 37° C., β-NADPH, 0-240 min, equal molar co-incubation
Procedure: (§1) Stock solution (50 μL) containing equal molar concentration of Alpelisib and Alpelisib-^18O1 was diluted with pre-warmed (37° C., water bath) 0.1 M Tris-Acetate buffer; and the concentration of each compound in this working solution was 4.5 μM. In each incubation well were added the above working solution (50 μL) and a liver S9 solution (50 μL), mixed well. The sample was pre-incubated for 5 min, following by addition, to each well, of β-NADPH dosing solution (100 μL). The sample plate was incubated at 37° C., and analyzed at time points of 0, 15, 30, 60, and 240 min., in triplicates. Sample analysis: at a pre-set time-point, a stop solution (800 μL, acetonitrile) was added to each well; the sample was well-mixed (Vortex), and centrifuged at 12000 rpm for 5 minutes; the supernatant was transferred to analytical sample vial, and then analyzed with LC-MS/MS, for M4 and M4-^18O1. […] Liver S9 used in the experiment: (a) monkey liver S9, (b) pooled human S9, (c) mini pig liver S9, and (d) male Wistar rat Liver S9.

[6] = M4 and M4-18O1 production in pooled human S9; type: in vitro ADME; details: pooled human S9, 37° C., β-NADPH, 0-240 min, equal molar co-incubation
Procedure: as §1

[7] = M4 and M4-18O1 production in mini pig liver S9; type: in vitro ADME; details: mini pig liver S9, 37° C., β-NADPH, 0-240 min, equal molar co-incubation
Procedure: as §1

[8] = M4 and M4-18O1 production in male Wistar rat liver S9; type: in vitro ADME; details: male Wistar rat liver S9, 37° C., β-NADPH, 0-240 min, equal molar co-incubation
Procedure: as §1

[9] = dose 2.5 mg/kg, 1:1 molar mix of Compound 1 and Alpelisib

Row | AUC(0-t) [2, 9] | AUC(0-inf) ([2]; dose 2.5 mg/kg, 1:1 molar mix) | Cmax ([2]; dose 2.5 mg/kg, 1:1 molar mix) | Tmax ([2]; dose 2.5 mg/kg, 1:1 molar mix) | Vd/F ([2]; dose 2.5 mg/kg, 1:1 molar mix) | AUC(0-inf) ([2]; low dose 0.322 mg/kg) | AUC(0-t) ([2]; low dose 0.322 mg/kg) | Cmax ([2]; low dose 0.322 mg/kg) | Tmax ([2]; low dose 0.322 mg/kg) | Vd/F ([2]; low dose 0.322 mg/kg) | plasma concentration at 24-h timepoint [2] | CLz/F ([2]; dose 2.5 mg/kg, 1:1 molar mix) | CLz/F ([2]; low dose 0.322 mg/kg) | AUC(0-inf) [3] | AUC(0-t) [3] | Cmax [3] | Tmax [3] | Vd/F [3] | CLz/F [3] | Cmax [4] | SMILES | further results
1 | – | – | – | – | – | – | – | – | – | – | – | – | – | – | – | – | – | – | – | – | Cc1nc(NC(=O)N2CCC[C@H]2C(=O)O)sc1-c1ccnc(C(C)(C)C(F)(F)F)c1 [Compound M4] | biological activity of the acid metabolite [1]: biologically inactive
2 | 28700 ng·h/mL | 28800 ng·h/mL | 2390 ng/mL | 3 h | 1.66 L/kg | 132 ng·h/mL | 118 ng·h/mL | 32.6 ng/mL | 0.875 h | 11.4 L/kg | below the limit of quantification | 7.23 mL/min/kg | 41.7 mL/min/kg | 32600 ng·h/mL | 27800 ng·h/mL | 4520 ng/mL | 2 h | 2.24 L/kg | 6.4 mL/min/kg | 1470 ng/mL | Cc1nc(NC(=O)N2CCC[C@H]2C(N)=[18O])sc1-c1ccnc(C(C)(C)C(F)(F)F)c1 [Compound 1, N-(4-methyl-5-(2-(2,2,2-trifluoro-1,1-dimethylethyl)-4-pyridinyl)-2-thiazolyl)aminocarbonyl-L-prolin-^18O-amide] | plasma concentration compared with Alpelisib ([2]; oral, both doses tested (2.5 and 0.322 mg/kg), greatest effect at low dose): higher; plasma concentration compared with Alpelisib ([3]; oral): higher; Tmax [4]: 1.1 h; half-life [4]: 4.5 h; AUC(0-t) [4]: 6680 ng·h/mL; Vd/F [4]: 2.4 L/kg; plasma concentration compared with Alpelisib ([4]; oral, 2.5 mg/kg each): higher; CLz/F [4]: 6.33 mL/min/kg; metabolism compared to Alpelisib (M4-18O1 versus M4 production) [5]: reduced; metabolism compared to Alpelisib (M4-18O1 versus M4 production) [6]: reduced; metabolism compared to Alpelisib (M4-18O1 versus M4 production) [7]: reduced; metabolism compared to Alpelisib (M4-18O1 versus M4 production) [8]: reduced
3 | 26400 ng·h/mL | 26500 ng·h/mL | 2300 ng/mL | 3 h | 1.8 L/kg | 80.3 ng·h/mL | 75.2 ng·h/mL | 28.1 ng/mL | 0.625 h | 13.1 L/kg | below the limit of quantification | 7.87 mL/min/kg | 68.3 mL/min/kg | 30600 ng·h/mL | 26200 ng·h/mL | 4210 ng/mL | 2 h | 2.37 L/kg | 6.82 mL/min/kg | 931 ng/mL | Cc1nc(NC(=O)N2CCC[C@H]2C(N)=O)sc1-c1ccnc(C(C)(C)C(F)(F)F)c1 [Alpelisib, N-(4-methyl-5-(2-(2,2,2-trifluoro-1,1-dimethylethyl)-4-pyridinyl)-2-thiazolyl)aminocarbonyl-L-prolinamide, reference compound] | Tmax [4]: 1.2 h; half-life [4]: 5.4 h; AUC(0-t) [4]: 6120 ng·h/mL; Vd/F [4]: 3 L/kg; CLz/F [4]: 6.83 mL/min/kg
